According to ChEMBL document CHEMBL1151064, “Conformationally restricted 1,5-diarylpyrazoles are selective COX-2 inhibitors” (Bioorg Med Chem Lett, 1996):

Assays:
[1] = target: T1, Prostaglandin G/H synthase 2 (Homo sapiens, UniProt P35354); assay: Inhibition of Prostaglandin G/H synthase 2 (COX-2)
T1 sequence (P35354 whole entry): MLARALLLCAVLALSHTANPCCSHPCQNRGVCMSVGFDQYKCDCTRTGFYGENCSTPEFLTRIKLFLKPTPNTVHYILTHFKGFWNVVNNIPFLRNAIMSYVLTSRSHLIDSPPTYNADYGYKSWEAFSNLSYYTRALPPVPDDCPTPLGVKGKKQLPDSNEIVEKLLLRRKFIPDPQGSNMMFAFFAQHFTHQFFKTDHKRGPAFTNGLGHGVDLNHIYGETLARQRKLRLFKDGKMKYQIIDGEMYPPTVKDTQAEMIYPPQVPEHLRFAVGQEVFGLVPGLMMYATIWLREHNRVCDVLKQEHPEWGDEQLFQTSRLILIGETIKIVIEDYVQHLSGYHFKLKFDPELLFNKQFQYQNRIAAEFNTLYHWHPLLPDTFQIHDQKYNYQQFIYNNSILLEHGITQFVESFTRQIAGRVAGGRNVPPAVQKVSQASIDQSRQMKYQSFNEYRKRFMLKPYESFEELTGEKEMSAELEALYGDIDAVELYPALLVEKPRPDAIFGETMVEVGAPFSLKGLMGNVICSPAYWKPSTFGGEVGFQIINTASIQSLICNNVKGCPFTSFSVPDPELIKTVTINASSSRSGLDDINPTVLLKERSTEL

[2] = target: T2, Prostaglandin G/H synthase 1 (Homo sapiens, UniProt P23219); assay: Relative activity against COX-1/COX-2
T2 sequence (P23219 whole entry): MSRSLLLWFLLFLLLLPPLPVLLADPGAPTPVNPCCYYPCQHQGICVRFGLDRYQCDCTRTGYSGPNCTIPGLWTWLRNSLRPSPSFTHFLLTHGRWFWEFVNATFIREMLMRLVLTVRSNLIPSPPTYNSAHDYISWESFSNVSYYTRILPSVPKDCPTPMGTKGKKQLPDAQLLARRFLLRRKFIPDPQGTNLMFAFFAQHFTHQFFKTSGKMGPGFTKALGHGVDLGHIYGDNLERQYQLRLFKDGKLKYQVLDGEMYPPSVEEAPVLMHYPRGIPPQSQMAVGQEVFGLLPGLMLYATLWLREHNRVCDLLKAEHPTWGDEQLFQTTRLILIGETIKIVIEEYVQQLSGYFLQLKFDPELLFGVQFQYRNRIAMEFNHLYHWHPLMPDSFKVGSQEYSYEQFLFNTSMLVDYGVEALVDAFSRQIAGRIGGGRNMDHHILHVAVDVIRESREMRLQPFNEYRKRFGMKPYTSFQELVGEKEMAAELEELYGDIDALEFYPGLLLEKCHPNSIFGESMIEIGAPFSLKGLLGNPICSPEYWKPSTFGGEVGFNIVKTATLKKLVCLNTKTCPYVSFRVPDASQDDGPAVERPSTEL

[3] = target: T2, Prostaglandin G/H synthase 1; assay: Inhibition of Prostaglandin G/H synthase 1 (COX-1)
Rattus norvegicus = assay: Compound was tested for inhibitory activity in carrageenan rat foot edema assay; type: functional

IC50 [1] [µM]	Ratio [2]	IC50 [3] [µM]	SMILES	ED50 (Rattus norvegicus) [mg/kg]
0.02	20		NS(=O)(=O)c1ccc(-n2nc(C(F)(F)F)c3c2-c2ccccc2CS3)cc1	
0.022	36	0.79	Cc1ccc2c(c1)CSc1c(C(F)(F)F)nn(-c3ccc(S(N)(=O)=O)cc3)c1-2	
0.04	7	0.27	NS(=O)(=O)c1ccc(-n2nc(C(F)(F)F)c3c2-c2ccc(F)cc2CS3)cc1	
0.013	23	0.3	COc1ccc2c(c1)CSc1c(C(F)(F)F)nn(-c3ccc(S(N)(=O)=O)cc3)c1-2	
0.021	297	6.24	NS(=O)(=O)c1ccc(-n2nc(C(F)(F)F)c3c2-c2cc(F)ccc2CS3)cc1	

Continued, compound first:

SMILES	IC50 [1] [µM]	Ratio [2]	IC50 [3] [µM]	ED50 (Rattus norvegicus) [mg/kg]
N#Cc1nn(-c2ccc(S(N)(=O)=O)cc2)c2c1SCc1cc(F)ccc1-2	0.14	5	0.76	
COc1cc2c(cc1F)-c1c(c(C(F)(F)F)nn1-c1ccc(S(C)(=O)=O)cc1)SC2	0.075	> 1330	> 100	
NS(=O)(=O)c1ccc(-n2nc(C(F)(F)F)c3c2-c2ccccc2OC3)cc1	1.33	5.3		
COc1cc2c(cc1F)-c1c(c(C(F)(F)F)nn1-c1ccc(S(N)(=O)=O)cc1)[S+]([O-])C2 (centres undefined)	1.5	> 67	> 100	
Cc1cc2c(cc1F)-c1c(c(C(F)(F)F)nn1-c1ccc(S(N)(=O)=O)cc1)SC2	0.016	693	11.1	15
COc1cc2c(cc1F)-c1c(c(C(F)F)nn1-c1ccc(S(N)(=O)=O)cc1)SC2	0.032	> 3120	> 100	
NS(=O)(=O)c1ccc(-n2nc(C(F)(F)F)c3c2-c2cc(F)c(F)cc2CS3)cc1	0.006	381	2.67	
COc1cc2c(cc1F)-c1c(c(C(F)(F)F)nn1-c1ccc(S(N)(=O)=O)cc1)SC2	0.009	303	2.73	17.7
